Data published in BindingDB's records for doi:10.1021/acs.jmedchem.0c01280 (Abbvie, 2021).

Test: Inhibition of TNFalpha in mouse L929 cells exposed to compound incubated for 1 hr with mouse TNFalpha by luminescence based assay
With `CN1CCN(Cc2ccc(-c3c[nH]c4ccncc34)c(OCCc3ccc(-c4cccc5ccncc45)cc3)c2)CC1` the IC50 was 128 nM.
In the case of `C[C@@H]1CN(c2ncc(-c3ccc4c(c3)N(Cc3ccccc3OC(F)F)C(C)(C)C4=O)cn2)CCN1C(=O)CO`, the IC50 is reported as 146 nM.
`C[C@@H]1CN(c2ncc(-c3ccc4c(c3)N(Cc3cccnc3C#N)C(C)(C)C4=O)cn2)CCN1C(=O)CO` showed an IC50 of 119 nM.
With `CC1(C)C(=O)c2ccc(-c3cnc(N4CCN5C(=O)NC[C@@H]5C4)nc3)cc2N1Cc1cccnc1C#N` the IC50 was 99 nM.
